Patent US20080161232A1, “C5a Receptor Antagonist” (JERINI AG, priority 2005, published 2008)
Starred links: 1 amine or outer side, 2 acyl side, 3 side chain; linkers in the order of their positions; H or OH if unused. Positions of bridges follow the written chain, without caps; N, C: chain ends. Non-standard residues stand in square brackets, D forms with d. Residues, ends and D or L forms follow the SMILES beside them. X7 = CC(=O)NCS(=O)(=O)C[C@H](N[*:1])C(=O)[*:2]; Phe(3-Cl) = N[C@@H](Cc1cccc(Cl)c1)C(=O)O; X3 = O=C([C@H](CCNC1=NCCN1)N[*:1])[*:2]; Phe(4-F) = N[C@@H](Cc1ccc(F)cc1)C(=O)O; X4 = O=C([C@H](CNC1=NCCN1)N[*:1])[*:2]; Bta = N[C@@H](Cc1csc2ccccc12)C(=O)O; Hyp = O=C(O)[C@@H]1C[C@@H](O)CN1; d(hLeu) = CC(C)CC[C@@H](N)C(=O)O; Tic = O=C(O)[C@@H]1Cc2ccccc2CN1; Cit = NC(=O)NCCC[C@H](N)C(=O)O; dCha = N[C@H](CC1CCCCC1)C(=O)O; Nle = CCCC[C@H](N)C(=O)O; Orn = NCCC[C@H](N)C(=O)O; Aze = O=C(O)[C@@H]1CCN1; Dab = NCC[C@H](N)C(=O)O; Dap = NC[C@H](N)C(=O)O

These molecules were tested against T1, human C5aR(CD88) (Homo sapiens, UniProt P21730) (assay: Determination of the IC50 value in an enzyme release assay (functional assay, antagonistic activity)). Conditions: antagonistic activity; IC50 group in enzyme release assay, RBL cells expressing human C5aR(CD88); read-out: activity (group).
T1 construct: expressed in transfected cells; host or cells: rat basophilic leukemia cells (RBL)
T1 sequence (P21730 1-350): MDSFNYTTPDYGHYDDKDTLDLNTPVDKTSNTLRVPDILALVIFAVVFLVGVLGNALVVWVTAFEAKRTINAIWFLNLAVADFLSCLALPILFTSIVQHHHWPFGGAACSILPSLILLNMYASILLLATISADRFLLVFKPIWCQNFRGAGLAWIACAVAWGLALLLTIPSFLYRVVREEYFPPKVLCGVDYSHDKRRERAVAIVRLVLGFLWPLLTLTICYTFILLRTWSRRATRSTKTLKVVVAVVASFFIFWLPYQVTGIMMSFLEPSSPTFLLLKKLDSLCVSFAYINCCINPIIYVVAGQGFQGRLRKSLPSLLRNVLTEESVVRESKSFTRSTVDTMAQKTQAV
Format: cell-based

Compound | IC50 [nM]
CC(=O)N[C@@H](Cc1ccccc1)C(=O)N[C@H]1CCCNC(=O)[C@H](Cc2ccccc2)NC(=O)[C@H](Cc2ccc(F)cc2)NC(=O)[C@@H](CCC(C)C)NC(=O)[C@@H]2CCCN2C1=O [Compound 198, Ac-Phe-[Orn-Pro-hle-Pff-Phe]] (Ac-F[Orn]P[d(hLeu)][Phe(4-F)]F; lactam 2-C) | 50 to 200
CCCC[C@@H]1NC(=O)[C@H](Cc2c[nH]c3ccccc23)NC(=O)[C@@H](CCC(C)C)NC(=O)[C@@H]2CCCN2C(=O)[C@@H](NC(=O)[C@H](Cc2ccccc2)NC(C)=O)CCCNC1=O [Compound 199, Ac-Phe-[Orn-Pro-hle-Trp-Nle]] (Ac-F[Orn]P[d(hLeu)]W[Nle]; lactam 2-C) | 20 to 50
CCCC[C@@H]1NC(=O)[C@H](Cc2c[nH]c3ccccc23)NC(=O)[C@@H](CC2CCCCC2)NC(=O)[C@H](CO)NC(=O)[C@@H](NC(=O)[C@H](Cc2ccccc2)NC(C)=O)CCCNC1=O [Compound 200, Ac-Phe-[Orn-Ser-cha-Trp-Nle]] (Ac-F[Orn]S[dCha]W[Nle]; lactam 2-C) | 50 to 200
CCCC[C@@H]1NC(=O)[C@H](Cc2c[nH]c3ccccc23)NC(=O)[C@@H](CCC(C)C)NC(=O)[C@H](CO)NC(=O)[C@@H](NC(=O)[C@H](Cc2ccccc2)NC(C)=O)CCCNC1=O [Compound 202, Ac-Phe-[Orn-Ser-hle-Trp-Nle]] (Ac-F[Orn]S[d(hLeu)]W[Nle]; lactam 2-C) | 50 to 200
CCCC[C@@H]1NC(=O)[C@H](Cc2c[nH]c3ccccc23)NC(=O)[C@@H](CC2CCCCC2)NC(=O)[C@@H]2Cc3ccccc3CN2C(=O)[C@@H](NC(=O)[C@H](Cc2ccccc2)NC(C)=O)CCCNC1=O [Compound 205, Ac-Phe-[Orn-Tic-cha-Trp-Nle]] (Ac-F[Orn][Tic][dCha]W[Nle]; lactam 2-C) | 50 to 200
CC(=O)N[C@@H](Cc1ccccc1)C(=O)N[C@@H](CCCNC(N)=O)C(=O)N1C[C@H](O)C[C@H]1C(=O)N[C@H](CCC(C)C)C(=O)N[C@@H](Cc1csc2ccccc12)C(=O)N[C@@H](Cc1ccccc1)C(N)=O [Compound 209, Ac-Phe-Cit-Hyp-hle-Bta-Phe-NH2] (Ac-F[Cit][Hyp][d(hLeu)][Bta]F-NH2) | 50 to 200
CC(=O)N[C@@H](Cc1ccccc1)C(=O)N[C@@H](CCCNC(N)=O)C(=O)N1CCC[C@H]1C(=O)N[C@H](CC1CCCCC1)C(=O)N[C@@H](Cc1csc2ccccc12)C(=O)N[C@@H](Cc1ccccc1)C(N)=O [Compound 210, Ac-Phe-Cit-Pro-cha-Bta-Phe-NH2] (Ac-F[Cit]P[dCha][Bta]F-NH2) | 50 to 200
CC(=O)N[C@@H](Cc1ccccc1)C(=O)N[C@@H](CCCNC(N)=O)C(=O)N1CCC[C@H]1C(=O)N[C@H](CCC(C)C)C(=O)N[C@@H](Cc1csc2ccccc12)C(=O)N[C@@H](Cc1ccccc1)C(N)=O [Compound 211, Ac-Phe-Cit-Pro-hle-Bta-Phe-NH2] (Ac-F[Cit]P[d(hLeu)][Bta]F-NH2) | 20 to 50
CC(=O)N[C@@H](Cc1ccccc1)C(=O)N[C@@H](CCN)C(=O)N1CCC[C@H]1C(=O)N[C@H](CC1CCCCC1)C(=O)N[C@@H](Cc1csc2ccccc12)C(=O)N[C@@H](Cc1ccccc1)C(N)=O [Compound 215, Ac-Phe-Dab-Pro-cha-Bta-Phe-NH2] (Ac-F[Dab]P[dCha][Bta]F-NH2) | 10 to 20
CC(=O)N[C@@H](Cc1ccccc1)C(=O)N[C@@H](CN)C(=O)N1CCC[C@H]1C(=O)N[C@H](CC1CCCCC1)C(=O)N[C@@H](Cc1csc2ccccc12)C(=O)N[C@@H](Cc1ccccc1)C(N)=O [Compound 216, Ac-Phe-Dap-Pro-cha-Bta-Phe-NH2] (Ac-F[Dap]P[dCha][Bta]F-NH2) | 50 to 200
CC(=O)NCS(=O)(=O)C[C@H](NC(=O)[C@H](Cc1ccccc1)NC(C)=O)C(=O)N1CCC[C@H]1C(=O)N[C@H](CC1CCCCC1)C(=O)N[C@@H](Cc1csc2ccccc12)C(=O)N[C@@H](Cc1ccccc1)C(N)=O [Compound 218, Ac-Phe-Eep-Pro-cha-Bta-Phe-NH2] (Ac-F[X7]P[dCha][Bta]F-NH2) | 50 to 200
CC(=O)N[C@@H](Cc1ccccc1)C(=O)N[C@@H](CCNC1=NCCN1)C(=O)N1CCC[C@H]1C(=O)N[C@H](CC1CCCCC1)C(=O)N[C@@H](Cc1csc2ccccc12)C(=O)N[C@@H](Cc1ccccc1)C(N)=O [Compound 220, Ac-Phe-Fcn-Pro-cha-Bta-Phe-NH2] (Ac-F[X3]P[dCha][Bta]F-NH2) | 10 to 20
CC(=O)N[C@@H](Cc1ccccc1)C(=O)N[C@@H](CNC1=NCCN1)C(=O)N1CCC[C@H]1C(=O)N[C@H](CC1CCCCC1)C(=O)N[C@@H](Cc1csc2ccccc12)C(=O)N[C@@H](Cc1ccccc1)C(N)=O [Compound 222, Ac-Phe-Fco-Pro-cha-Bta-Phe-NH2] (Ac-F[X4]P[dCha][Bta]F-NH2) | 50 to 200

Results, then the molecule that gave them:

IC50 [nM] | Compound
50 to 200 | CCCC[C@@H]1NC(=O)[C@H](Cc2c[nH]c3ccccc23)NC(=O)[C@@H](CC2CCCCC2)NC(=O)[C@H]([C@@H](C)O)NC(=O)[C@@H](NC(=O)[C@H](Cc2ccccc2)NC(C)=O)CCCNC1=O [Compound 203, Ac-Phe-[Orn-Thr-cha-Trp-Nle]] (Ac-F[Orn]T[dCha]W[Nle]; lactam 2-C)
50 to 200 | CC(=O)N[C@@H](Cc1ccccc1)C(=O)N[C@@H](C)C(=O)N1CCC[C@H]1C(=O)N[C@H](CC1CCCCC1)C(=O)N[C@@H](Cc1csc2ccccc12)C(=O)N[C@@H](Cc1ccccc1)C(N)=O [Compound 206, Ac-Phe-Ala-Pro-cha-Bta-Phe-NH2] (Ac-FAP[dCha][Bta]F-NH2)
50 to 200 | CC(=O)N[C@@H](Cc1ccccc1)C(=O)N[C@@H](CCCNC(=N)N)C(=O)N1CCC[C@H]1C(=O)N[C@H](CCC(C)C)C(=O)N[C@@H](Cc1csc2ccccc12)C(=O)N[C@@H](Cc1ccccc1)C(N)=O [Compound 207, Ac-Phe-Arg-Pro-hle-Bta-Phe-NH2] (Ac-FRP[d(hLeu)][Bta]F-NH2)
50 to 200 | CC(=O)N[C@@H](Cc1ccccc1)C(=O)N[C@@H](CCCNC(=N)N)C(=O)N1CCC[C@H]1C(=O)N[C@H](CCC(C)C)C(=O)N[C@@H](Cc1cccc(Cl)c1)C(=O)N[C@@H](Cc1ccccc1)C(N)=O [Compound 208, Ac-Phe-Arg-Pro-hle-Mcf-Phe-NH2] (Ac-FRP[d(hLeu)][Phe(3-Cl)]F-NH2)
50 to 200 | CC(=O)N[C@@H](Cc1ccccc1)C(=O)N[C@@H](CCCNC(N)=O)C(=O)N[C@@H](CO)C(=O)N[C@H](CCC(C)C)C(=O)N[C@@H](Cc1csc2ccccc12)C(=O)N[C@@H](Cc1ccccc1)C(N)=O [Compound 212, Ac-Phe-Cit-Ser-hle-Bta-Phe-NH2] (Ac-F[Cit]S[d(hLeu)][Bta]F-NH2)
20 to 50 | CC(=O)N[C@@H](Cc1ccccc1)C(=O)N[C@@H](CCN)C(=O)N1CC[C@H]1C(=O)N[C@H](CC1CCCCC1)C(=O)N[C@@H](Cc1csc2ccccc12)C(=O)N[C@@H](Cc1ccccc1)C(N)=O [Compound 213, Ac-Phe-Dab-Aze-cha-Bta-Phe-NH2] (Ac-F[Dab][Aze][dCha][Bta]F-NH2)
20 to 50 | CC(=O)N[C@@H](Cc1ccccc1)C(=O)N[C@@H](CCN)C(=O)N1CC[C@H]1C(=O)N[C@H](CCC(C)C)C(=O)N[C@@H](Cc1csc2ccccc12)C(=O)N[C@@H](Cc1ccccc1)C(N)=O [Compound 214, Ac-Phe-Dab-Aze-hle-Bta-Phe-NH2] (Ac-F[Dab][Aze][d(hLeu)][Bta]F-NH2)
10 to 20 | CC(=O)N[C@@H](Cc1ccccc1)C(=O)N[C@@H](CCNC1=NCCN1)C(=O)N1CC[C@H]1C(=O)N[C@H](CC1CCCCC1)C(=O)N[C@@H](Cc1csc2ccccc12)C(=O)N[C@@H](Cc1ccccc1)C(N)=O [Compound 219, Ac-Phe-Fcn-Aze-cha-Bta-Phe-NH2] (Ac-F[X3][Aze][dCha][Bta]F-NH2)
